The source of these data is patent publication EP4692072A1, “PHOTOCHROMIC COMPOUND, PROPARGYL ALCOHOL COMPOUND, CURABLE COMPOSITION, OPTICAL ARTICLE, LENS, AND SPECTACLES” (TOKUYAMA CORPORATION, priority 2023, dated 2024).

Series [1] can be described thus: Photochromic properties of photochromic laminate (plastic lens) prepared by coating method. It counts as physicochemical. As to conditions: 40 µm photochromic layer on thiourethane lens, 0.25 mmol compound per 100 g monomers, after color development. Summed up:
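Compound at 0.25 mmol per 100 g methacrylate monomers in a 40 µm spin-coated layer on a primed 2 mm thiourethane lens, photocured under N2, then heated 110°C 1 h. Spectrophotometer read-out after 300 s irradiation at 23°C: λmax, colour density, fading half-life; residual rate after 120 h xenon ageing.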

Series [2] in a line: Accelerated deterioration (xenon weather meter X25, 120 hours) of photochromic cured product prepared by kneading method. As to conditions: 1 mm cured product, 0.106 mmol per 100 g monomer, A120/A0×100 after 120 hours xenon weather meter. It is filed as physicochemical. The procedure:
• [1] Maximum Absorption Wavelength (λmax): The maximum absorption wavelength after color development, measured using a spectrophotometer (instantaneous multichannel photodetector MCPD3000) manufactured by Otsuka Electronics Co., Ltd. was used as an indicator for the color tone during the color development. • [2] 23°C Color Optical Density (A23): A difference between an absorbancy measured after light irradiation at 23°C for 300 seconds {ε(300)} and an absorbancy without light irradiation ε(0) at the maximum absorption wavelength was used as an indicator for the color optical density. […] 23°C color fading half-life [τ1/2 (sec.)]: A time required for the absorbancy of the sample at the maximum absorption wavelength to decrease to 1/2 of {ε(300)-ε(0)} when the light irradiation was terminated after the light irradiation at 23°C for 300 seconds, was used as an indicator for the color fading speed. The shorter this time, the higher the color fading speed. • [4] Residual rate (A120/A0×100): The obtained photochromic plastic lens was subjected to accelerated deterioration using a xenon weather meter X25 manufactured by Suga Test Instruments Co., Ltd. for 120 hours. Subsequently, the color optical density was evaluated before and after the test, then a color optical density before the test (A0) and a color optical density after the test (A120) were measured, and a ratio (A120/A0) was defined as a residual rate. The residual rate was used as an indicator for a color developing durability. The higher the residual rate, the higher the color developing durability. The results of Examples 26, 50, and Comparative Examples 1 to 8 are summarized in Table 1, and the results of Examples 27 to 49 are summarized in Tables 2 and 3.
First, the photochromic compound obtained in Example 1, additives, and a polymerizable compound were mixed to obtain a curable composition.
As the polymerizable compound, a combination of the following polymerizable monomers was used. • 1,3-bis(isocyanatomethyl)cyclohexane: 36.7 parts by mass Pentaerythritol tetrakis(3-mercaptopropionate): 39.4 parts by mass • Polyoxyethylene polyoxypropylene lauryl ether (Wonder Surf 140 manufactured by Aoki Oil Industrial Co., Ltd.): 17.4 parts by mass • 1-decanethiol: 2.8 parts by mass • RX-1 adjusted according to the method described in Patent Document 13: 3.8 parts by mass
Note that the photochromic compound was added to the curable composition so that the amount of the photochromic compound was 0.106 mmol based on 100 g of the total amount of the polymerizable monomer. The following additives were used: Dimethyltin dichloride • : 0.05 part by mass • Irganox 245: 0.1 part by mass • 2-ethylhexyl 4-methoxycinnamate: 0.6 part by mass
The prepared curable composition was thoroughly defoamed, then injected into a glass mold having a 1 mm gap, and polymerized by cast polymerization. The polymerization was carried out in an air furnace while gradually raising the temperature from 27°C to 120°C over 18 hours. After the polymerization, the cured product was removed from the glass mold to obtain a photochromic cured product having a thickness of 1 mm. The obtained photochromic cured product was evaluated in the same manner as in Example 26.
(Examples 85 to 99, and Comparative Example 14 to 18) Photochromic cured products were prepared using photochromic compounds presented in Tables 6 and 7 in the same manner as in Example 84. The results of Examples 84 and 85 and Comparative Examples 14 to 18 are summarized in Table 6, and the results of Examples 86 to 99 are summarized in Table 7.

For the molecule `CCCC1(CCC)c2ccccc2-c2c1c1c(c3cc(OC)c(-c4ccc(OC)cc4OC)cc23)OC(c2ccc(C)cc2)(c2ccc(N(C)c3ccccc3)cc2)C=C1` (stereo not drawn) [Example 19], the Maximum absorption wavelength was 494 nm in series [1] and 604 nm in series [1] (listed as Formula (80)). Moreover, the Residual rate in series [2] was 73%.
In the case of `CCCCC1(CCCC)c2cc(-c3ccc(OC(C)C)cc3)ccc2-c2c1c1c(c3cc(OC)ccc23)OC(c2ccc(N(C)c3ccccc3)cc2)(c2ccc(OC)c(F)c2)C=C1` (stereo not drawn) [Example 21], the Maximum absorption wavelength worked out at 489 nm in series [1] and 609 nm in series [1] (listed as Formula (83)). Besides, the Residual rate in series [2] came to 68%.
Take `CCCC1(CCC)c2ccccc2-c2c1c1c(c3cc(OC)c(-c4ccc(N(C)c5ccccc5)cc4)cc23)OC(c2ccc(C)cc2)(c2ccc(N(C)c3ccccc3)cc2)C=C1` (stereo not drawn) [Example 24]: the Maximum absorption wavelength came to 504 nm in series [1] and 599 nm in series [1] (listed as Formula (86)). The Residual rate in series [2] was 65%.
`CCN(c1ccc(OC)cc1)c1ccc(C2(c3ccc(OC)cc3)C=Cc3c4c(c5cc(-c6ccc(N7CCOCC7)cc6)c(OC)cc5c3O2)-c2ccccc2C4(C)C)cc1` (stereo not drawn) [Example 25]: the Maximum absorption wavelength in series [1] is 505 nm; in series [1] (listed as Formula (88)), 605 nm. The Residual rate in series [2] stood at 68%.
Take `COCCOCCOCCOCCC1(CCOCCOCCOCCOC)c2cc(C(F)(F)F)ccc2-c2c1c1c(c3cc(OC)c(OC)cc23)OC(c2ccc(OC)cc2)(c2ccc(N(C)c3ccccc3)cc2)C=C1` (stereo not drawn) [Example 51]: the Maximum absorption wavelength in series [1] is 482 nm; in series [1] (listed as Formula (89)), 603 nm. Moreover, the Residual rate in series [2] came to 68%.
On to `CCCC1(CCC)c2cc(OC(F)(F)F)ccc2-c2c1c1c(c3cc(OC)c(Sc4c(C)cccc4C)cc23)OC(c2ccc(N(C)c3ccccc3)cc2)(c2ccc(OC)c(OC)c2)C=C1` (stereo not drawn) [Example 57], for which the Maximum absorption wavelength in series [1] amounted to 493 nm; in series [1] (listed as Formula (110)), 615 nm. Also, the Residual rate in series [2] was 72%.
As to `COCCCCC1(CCCCOC)c2ccccc2-c2c1c1c(c3cc(-c4ccc(OC)cc4OC)c(OC)cc23)OC(c2ccc(N(C)c3ccccc3)cc2)(c2ccc3c(c2)CCO3)C=C1` (stereo not drawn) [Example 62], the values for the Maximum absorption wavelength in series [1] and in series [1] (listed as Formula (124)) were 477 nm and 587 nm, respectively. The Residual rate in series [2] amounted to 67%.
